Measurements reported in US20260207717A1, “METHODS FOR TREATING INFANTILE-ONSET POMPE DISEASE IN PEDIATRIC PATIENTS” (Amicus Therapeutics, Inc., priority 2022, published 2026).

Legend:
[1] = tested on: pediatric patient with infantile Pompe disease; experiment: Example 16: pediatric IOPD patient switched from Myozyme to ATB200/AT2221; type: in vivo, human
Excerpt: A patient with severe infantile Pompe disease presented. The patient underwent a comprehensive physical examination, measurement of GAA enzyme activity, genetic testing of the GAA gene and muscle biopsy to establish the diagnosis.
The patient received the high-dose enzyme replacement therapy with Myozyme after diagnosis. The patient responded very poorly to therapy. Due to rapidly progressing Pompe disease and inadequate response to therapy, the patient's survival was at risk. For the patient, the opportunity arose to receive the new ATB200/AT2221 ERT via a compassionate use/Expanded Access Program (EAP).
The index patient has regular measurement of the urinary Glc4-levels since the change of the ERT to ATB200. The Glc4-levels were determined by an established method from the Duke University. The analysis of Glc4 is standardized as a butyl-4-aminobenzoate derivative using [^13C6] Glc4 as the internal standard (IS). The measurement is performed as ultra-performance liquid chromatography-tandem mass spectrometry (UPLC-MS/MS). The Glc4-values are then normalized to creatinine.
The patient presented with IOPD at 6 months and was started on the standard dose of Myozyme (20 mg/kg/bi-weekly). Due to the inadequate response to therapy, the dose was doubled just one month after the start of therapy in form of a weekly administration of Myozyme. […] But the cardiological situation deteriorated progressively.
Therefore, just three months after initiation of therapy, the dose was again doubled to 40 mg/kg/weekly, so the patient received a total of four times the standard dose. With the intensification of ERT and cardiac therapy, the patient's condition initially stabilized. Nevertheless, over the next few months, the patient's general condition steadily deteriorated, and the patient decompensated, especially respiratory.
The patient was switched from Myozyme to ATB200/AT2221 after eight months of insufficient Myozyme therapy response. The patient was […] at the time of the therapy switch. The new therapy (via EAP) was initiated with the oral administration of 30 mg premedication AT2221 (Miglustat) one hour prior to enzyme administration. ATB200 was administered at a bi-weekly interval at a dosage of 20 mg/kg. In the further course of treatment, the dosage of premedication and ERT was repeatedly adjusted and optimized (see Table 22). Some actual dosages in Table 22 (e.g., 37 mg/kg and 34.5 mg/kg at 32 and 38 months, respectively) varied from the target dose (e.g., 30 mg/kg) to avoid waste of extra material left in vials.
The Gross Motor Function Measure 66 (GMFM 66) is used to quantify a patients' motor skills. The GMFM 66 is a worldwide standardized test developed and validated for children with cerebral palsy to measure the development of gross motor function over time. During testing 66 items are examined and a score from 0 to 100 points is possible.

Juvenile toxicology = type: in vivo
Protocol: (§1) The cipaglucosidase alfa dose of 30 mg/kg being evaluated in this protocol was determined from population PK modeling and simulation analyses that included pooled data from 96 adults and 11 pediatric subjects dosed at 20, 25, and 30 mg/kg, including 3 pediatric IOPD patients from the Expanded Access Program (EAP) (ages 1 to 3 years) at the 30 mg/kg dose level. The 30 mg/kg dose level in combination with additional effect from miglustat provided exposures that are well within the safety margin and multiples of exposure established by the juvenile toxicology no-observed-adverse effect-level (NOAEL) of 150 mg/kg.

pediatric IOPD patients = experiment: Tolerability and accumulation in 3 pediatric IOPD patients of the EAP; type: in vivo, human; conditions: 30 mg/kg cipaglucosidase alfa in combination with miglustat, 3 pediatric IOPD patients in the EAP
Protocol: as §1
This frequency of dosing is based on the systemic clearance of the cipaglucosidase alfa and miglustat, and the acuity/severity of disease in IOPD, as well as observations in 3 IOPD patients enrolled in the EAP (ERT-experienced patients in clinical decline).
A weekly frequency of 30 mg/kg cipaglucosidase alfa and miglustat administration will be evaluated in this study. A weekly 30 mg/kg cipaglucosidase alfa and miglustat dose has been administered in pediatric subjects with IOPD from the EAP. […] The rationale for weekly dosing in both cohorts is based on evidence supporting improved survival for IOPD patients receiving weekly dosing of standard of care ERT compared to every other week dosing (Ditters, Huidekper et al, 2021). […]

ATB200: recombinant human acid α-glucosidase with a high content of N-glycans bearing mono-M6P and bis-M6P, produced from a GA-ATB200 cell line
GMFM 66 score ([1]; 16.5 months of ATB200 therapy): 17.0 points | GMFM 66 score ([1]; 24 months of ATB200 therapy): 24.0 points | GMFM 66 score ([1]; 28 months of ATB200 therapy): 29.3 points | urinary Glc4 levels ([1]; biweekly 20 mg/kg): remained relatively constant | urinary Glc4 levels ([1]; dose increase to 25 mg/kg/bi-weekly and switch to weekly 30 mg/kg at 19 months of age): increase | urinary Glc4 levels ([1]; since 32 months of age (FIG. 71)): decrease of the values to the initial level | no-observed-adverse effect-level (NOAEL) (Juvenile toxicology): 150 mg/kg | tolerability (pediatric IOPD patients): generally well-tolerated
